Source: patent US20150292032A1, “TREATMENT OF CANCER BY TARGETING QUIESCENT CANCER CELLS” (FELICITEX THERAPEUTICS, INC., priority 2012, published 2015)

Legend:
[1] = test system: Panc-1 pancreatic cancer cells; experiment: Quiescent (G0) cell fraction in serum-starved Panc-1 cells, two-parameter flow cytometry (Pyronin Y / Hoechst); format: cell-based, human
Method: Panc-1 cells were forced into the quiescent state by serum deprivation for 48 hours. Panc-1 were cultured in DMEM+0.2% FBS for 48 hours. Next the cells were switched to fresh media DMEM+10% FBS (panel A) or to fresh media DMEM+1-% FBS supplemented with 0.25 μM DYRK1B inhibitor R (panel B). As a result of this serum deprivation, 42% of cells were identified in G0 quiescent state, as depicted in FIG. 5A. The percentage of quiescent cells was identified by flow cytometry FACS analysis.
Next, a DYRK1B small molecule inhibitor R, pictured in FIG. 7, was applied to inhibit the activity of DYRK1B kinase, and the percentage of quiescent cells was again analyzed. […] Upon inhibition of the activity of DYRK1B kinase, pancreatic cancer cells left the G0 quiescent state and progressed into cell cycle. While the number of quiescent cells had been reduced to 27% in the presence of DYRK1B inhibitor R, the number of cells in S-phase of cell cycle doubled (13%) as compared to control cells (6% in FIG. 5A). DYRK1B kinase activity was necessary for Panc-1 pancreatic cancer cells to accumulate in a quiescent state. The distribution of cellular population within the cell cycle (i.e. G0, G1, S and G2/M populations) was analyzed by two-parameter flow cytometry. Specifically, the incorporation of Pyronin Y and Hoechst staining correlated to RNA and DNA content distribution, respectively. (Ewton, D. Z., Hu, J., Vilenchik, M., Deng, X., Luk, K. C., Polonskaia, A., Hoffman, A. F., Zipf, K., Boylan, J. F., and Friedman, E. A. (2011) Inactivation of mirk/dyrk1b kinase targets quiescent pancreatic cancer cells, Molecular Cancer Therapeutics 10, 2104-2114).

[2] = test system: colon cancer cell line SW620; experiment: S-phase fraction of cycling log-phase SW620 cells, BrdU pulse / PI flow cytometry; format: cell-based, human; conditions: 1 μM, 24 hours
Method: An experiment was run to determine if inhibition of DYRK1B activity would facilitate cells escaping quiescence and result in surge of proliferating cells, utilizing small molecule inhibitor R. Cycling, log-phase cells from colon cancer cell line SW620 were treated with 1 μM of DYRK1B inhibitor R for 24 hours with 1 hour pulse of BrdU before analysis by flow cytometry after propidium iodine staining of DNA. 38% of the cellular population was detected in the S-phase of the cell cycle. Parallel cultures were treated with the small molecule DYRK1B inhibitor R for 24 hours followed by identical FACS analysis (1-hour BrdU pulse followed by specific mAB-FITC and PI staining).

## COc1ncc2cc(C(=O)Nc3cc(C(=O)NCc4cccc(Cl)c4)ccc3Cl)c(=O)[nH]c2n1 [inhibitor R]
[1]; Panc-1, 48 h serum deprivation (DMEM+0.2% FBS), then fresh media with 0.25 μM inhibitor, FACS, control 42%
  percentage of Panc-1 cells in G0 quiescent state: 27%
[1]; Panc-1, 48 h serum deprivation, then fresh media with 0.25 μM inhibitor, FACS, control 6%
  number of cells in S-phase of cell cycle: 13%
[1]; Panc-1, presence of inhibitor
  entry of additional Panc-1 cells into quiescence: blocked additional Panc-1 cells from entering quiescence
[2]
  increase of fraction of S-phase cells compared to non-treated control: 29%
[2]; 1 hour BrdU pulse, control 38%
  S-phase population of cells: 49%
